The text below walks through data of patent US7919468B2, “Compounds useful as modulators of the proteasome activity” (Centre National de la Recherche Scientifique (C.N.R.S.), priority 2005, dated 2011).

Each structure is given as a SMILES string.

One series has as its target T1, cathepsin A (Homo sapiens, UniProt P10619).
T1 sequence (P10619 29-480): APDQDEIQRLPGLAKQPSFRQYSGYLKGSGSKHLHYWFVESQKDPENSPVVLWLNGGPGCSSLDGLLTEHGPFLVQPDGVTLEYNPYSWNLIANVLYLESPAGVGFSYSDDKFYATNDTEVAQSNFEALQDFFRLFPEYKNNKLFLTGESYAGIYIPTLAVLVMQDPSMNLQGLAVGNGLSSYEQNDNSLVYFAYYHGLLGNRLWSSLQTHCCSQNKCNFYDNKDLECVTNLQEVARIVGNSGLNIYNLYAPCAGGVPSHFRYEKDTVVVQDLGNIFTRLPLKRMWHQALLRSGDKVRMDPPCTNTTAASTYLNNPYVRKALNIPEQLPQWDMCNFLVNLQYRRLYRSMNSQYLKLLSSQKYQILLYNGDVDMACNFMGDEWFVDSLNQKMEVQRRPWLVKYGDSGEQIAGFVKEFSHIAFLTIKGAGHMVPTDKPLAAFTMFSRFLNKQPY
The settings on record: cited from earlier work.

Series [1] has as its target cytosolic tripeptidyl peptidase II (Homo sapiens, UniProt P29144). The settings on record: cited from earlier work.
Another series concerns the target T2, m-calpain (Homo sapiens, UniProt P17655).
T2 sequence (P17655 1-700): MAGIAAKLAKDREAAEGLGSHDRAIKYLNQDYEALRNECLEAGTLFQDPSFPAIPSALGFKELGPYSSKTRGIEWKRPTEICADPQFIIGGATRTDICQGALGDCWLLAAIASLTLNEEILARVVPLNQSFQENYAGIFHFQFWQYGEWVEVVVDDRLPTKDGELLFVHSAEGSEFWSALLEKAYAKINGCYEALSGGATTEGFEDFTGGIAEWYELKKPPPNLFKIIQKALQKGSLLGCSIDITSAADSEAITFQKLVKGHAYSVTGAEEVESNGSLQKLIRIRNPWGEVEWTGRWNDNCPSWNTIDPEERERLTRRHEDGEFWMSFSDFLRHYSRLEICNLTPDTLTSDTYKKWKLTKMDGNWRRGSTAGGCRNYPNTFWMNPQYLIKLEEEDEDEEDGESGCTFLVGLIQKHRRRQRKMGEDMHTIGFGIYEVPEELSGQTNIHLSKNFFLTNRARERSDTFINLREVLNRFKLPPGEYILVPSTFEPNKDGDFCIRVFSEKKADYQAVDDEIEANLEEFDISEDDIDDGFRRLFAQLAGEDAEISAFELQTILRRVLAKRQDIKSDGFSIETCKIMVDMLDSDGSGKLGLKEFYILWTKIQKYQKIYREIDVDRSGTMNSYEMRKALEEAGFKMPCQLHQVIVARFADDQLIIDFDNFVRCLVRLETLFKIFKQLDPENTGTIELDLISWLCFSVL
T2 sequence (P04632 1-268 partner): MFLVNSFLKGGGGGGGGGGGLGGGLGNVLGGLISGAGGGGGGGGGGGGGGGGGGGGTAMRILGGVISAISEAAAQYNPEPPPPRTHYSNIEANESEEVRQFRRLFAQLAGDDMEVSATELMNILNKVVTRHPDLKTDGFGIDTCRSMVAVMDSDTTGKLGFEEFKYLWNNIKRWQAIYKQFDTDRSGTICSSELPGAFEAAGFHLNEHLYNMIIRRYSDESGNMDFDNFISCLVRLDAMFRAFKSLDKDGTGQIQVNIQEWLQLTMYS
The settings on record: cited from earlier work.

In another series the target is cathepsin-L (Homo sapiens, UniProt P07711). The note with it: cited from earlier work.
Another series has as its target T3, trypsin (Bos taurus, UniProt P00760).
T3 construct: gene PRSS1
T3 sequence (P00760 24-246): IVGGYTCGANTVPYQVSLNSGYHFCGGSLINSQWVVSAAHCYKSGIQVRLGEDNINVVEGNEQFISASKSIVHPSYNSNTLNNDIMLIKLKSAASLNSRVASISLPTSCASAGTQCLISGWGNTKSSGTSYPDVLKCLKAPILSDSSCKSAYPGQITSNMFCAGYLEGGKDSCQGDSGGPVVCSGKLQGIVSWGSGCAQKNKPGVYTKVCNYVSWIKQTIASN
The note with it: cited from earlier work.

Series [2] concerns T4, rabbit 20S proteasome, chymotrypsin-like (CT-L) activity.
T4 construct: other: [Compound]=100 μM, pH 7.5, 30° C
Put plainly: Rabbit 20S proteasome fluorescent assay, chymotrypsin-like activity (Suc-LLVY-amc). The class given is biochemical. The note with it: [Compound]=100 μM, pH 7.5, 30° C. The procedure: (§1) 20S proteasome from rabbit reticulocyte was from commercial source (Alexis Biochemicals)
(§2) Semi-automatic fluorescent assays using Suc-LLVY-amc (SEQ ID NO: 2) for chymotrypsin-like activity, Z-LLE-SNA for post-acid activity and Boc-LLR-amc for trypsin-like activity of proteasome were performed at pH 7.5 and 30° C. using BMG Fluostar microplate reader (Suc=succinyl; amc=7-amino-4-methylcoumarin; Z=benzyloxycarbonyl; NA=2-naphtylamine; Boc=tert-butoxycarbonyl). The buffers were: 20 mM Tris, 1 mM DTT, 10% glycerol, 3% (v/v) DMSO (ChT-L and PA activities); 20 mM Tris, 1 mM DTT, 10% glycerol, 3% (v/v) DMSO. Studied compounds were dissolved in DMSO prior dissolution in the buffer. Proteasome was incubated for 15 min at 30° C. in the presence of the studied compound (0.1-100 μM). A control assay in the absence of tested compounds contained DMSO at the same concentration (3%, v/v). The fluorogenic proteasome substrate was then added and the hydrolysis of the appropriate fluorescent substrate was monitored for 1 h (λexc=360, λem=465 nm for amc substrates and λexc=340, λem=405 nm for the βNA substrate). Initial rates determined in control experiments were considered to be 100% of the peptidasic activity; initial rates that were above 100% in the presence of a test compound were considered to be activations, while initial rates below 100% were considered to be inhibitions. For weak inhibitors, the percentage of inhibition at a reference concentration (100 μM) is reported. The results, expressed in % inhibition (or activation factor), were obtained by calculating the average of at least two independent experiments, the variability was less than 10%. The inhibitory activity of more efficient compounds are expressed as IC50 calculated by fitting the experimental data to the equation 1: % Inhibition=100 [I]0/(IC50+[I]0)=100 (v0−vi/v0), or equation 2: % Inhibition=100 [I]0^nH/(IC50^nH+[I]0^nH), nH is the Hill number. v0 and vi are the initial rates in the absence and in the presence of inhibitor. A Dixon plot has been used to determine the inhibition constant Ki for competitive inhibition by compound A215. The reversible character of inhibition or activation was determined by measuring the activity of treated enzyme after the inhibitor molecule has been withdrawn from the reaction medium.
(§3) Inhibition of Rabbit 20 S Proteasome (pH=7.5, 30° C.)
(§4) Activation of Rabbit 20 S Proteasome (pH=7.5, 30° C., [Compound]=100 μM)

In series [3] the test system is rabbit 20S proteasome, post-acid (PA) activity. In words: Rabbit 20S proteasome fluorescent assay, post-acid activity (Z-LLE-βNA). The class given is biochemical. The note with it: [Compound]=100 μM, pH 7.5, 30° C. The procedure: as §1, §2, §3, §4
The test system of series [4] is rabbit 20S proteasome, trypsin-like (T-L) activity. In words: Rabbit 20S proteasome fluorescent assay, trypsin-like activity (Boc-LLR-amc). The class given is biochemical. The note with it: [Compound]=100 μM, pH 7.5, 30° C. As for the experimental part: as §1, §2, §3, §4
The conditions of series [5]: patients enrolled in clinical trials (thrombocytopaenia, fatigue, peripheral neuropathy, neutropenia); cited from earlier work.

Sequence of cytosolic tripeptidyl peptidase II (P29144 whole entry): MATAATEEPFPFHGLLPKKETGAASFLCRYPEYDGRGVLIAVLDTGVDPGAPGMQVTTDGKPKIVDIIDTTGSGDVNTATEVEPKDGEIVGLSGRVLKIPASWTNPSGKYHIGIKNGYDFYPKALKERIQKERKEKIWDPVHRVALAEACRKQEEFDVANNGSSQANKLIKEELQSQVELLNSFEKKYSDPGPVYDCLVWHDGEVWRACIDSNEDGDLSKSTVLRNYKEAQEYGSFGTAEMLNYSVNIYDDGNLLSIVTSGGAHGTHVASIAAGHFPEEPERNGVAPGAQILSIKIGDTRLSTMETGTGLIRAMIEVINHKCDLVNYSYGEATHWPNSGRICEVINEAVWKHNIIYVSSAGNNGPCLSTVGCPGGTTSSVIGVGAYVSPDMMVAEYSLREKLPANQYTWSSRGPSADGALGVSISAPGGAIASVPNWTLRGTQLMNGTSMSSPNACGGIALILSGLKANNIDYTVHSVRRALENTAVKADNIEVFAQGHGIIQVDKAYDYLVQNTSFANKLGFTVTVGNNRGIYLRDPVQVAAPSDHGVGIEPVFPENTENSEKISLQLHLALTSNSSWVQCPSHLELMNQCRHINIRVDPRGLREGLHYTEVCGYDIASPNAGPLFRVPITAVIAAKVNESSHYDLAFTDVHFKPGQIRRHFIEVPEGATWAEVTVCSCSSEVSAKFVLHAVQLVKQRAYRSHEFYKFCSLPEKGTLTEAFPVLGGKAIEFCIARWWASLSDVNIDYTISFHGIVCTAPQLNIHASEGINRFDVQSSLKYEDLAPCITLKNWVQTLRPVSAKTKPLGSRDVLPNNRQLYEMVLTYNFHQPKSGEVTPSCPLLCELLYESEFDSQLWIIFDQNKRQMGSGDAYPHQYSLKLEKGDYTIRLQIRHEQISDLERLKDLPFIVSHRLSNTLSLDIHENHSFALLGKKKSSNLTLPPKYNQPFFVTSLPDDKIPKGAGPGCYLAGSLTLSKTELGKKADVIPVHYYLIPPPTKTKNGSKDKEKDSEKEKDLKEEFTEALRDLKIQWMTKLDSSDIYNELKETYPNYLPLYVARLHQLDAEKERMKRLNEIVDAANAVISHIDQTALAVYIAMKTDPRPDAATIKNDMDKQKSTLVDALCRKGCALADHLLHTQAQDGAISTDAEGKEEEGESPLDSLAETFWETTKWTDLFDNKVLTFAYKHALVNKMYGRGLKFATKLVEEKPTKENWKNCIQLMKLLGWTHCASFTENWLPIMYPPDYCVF
Sequence of cathepsin-L (P07711 114-333, species assumed): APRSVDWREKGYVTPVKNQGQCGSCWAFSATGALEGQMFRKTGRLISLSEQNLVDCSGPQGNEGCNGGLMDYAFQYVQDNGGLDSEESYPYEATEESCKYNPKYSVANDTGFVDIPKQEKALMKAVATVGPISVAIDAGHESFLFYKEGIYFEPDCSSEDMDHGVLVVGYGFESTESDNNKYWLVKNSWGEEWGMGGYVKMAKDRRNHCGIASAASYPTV

Consider `CC(=O)N[C@@H](CSC(=O)[C@]1([C@@H](O)C(C)C)NC(=O)[C@H](C)[C@@H]1O)C(=O)O` [Lactacystin, lactacystin], for which, on cathepsin A, the “inhibition of cathepsin A” value is “inhibited”. In addition, in series [1], the “inhibition of tripeptidyl peptidase II” value is “inhibited”.
With `C/C=C\NC(=O)[C@H]1NC(=O)[C@H](CC(N)=O)NC(=O)[C@@H](NC(=O)C(=O)[C@@H](C)CC)Cc2ccc(O)c(c2)-c2cccc3c2NC(=O)[C@@]3(O)[C@@H]1O` [TMC-95A], the inhibition of m-calpain entry on m-calpain is listed as “no inhibition”. The “inhibition of cathepsin-L” value on cathepsin-L is given as “no inhibition”. Moreover, at trypsin, the inhibition of trypsin result was “no inhibition”.
Take `CC(C)(C)OC(=O)NCCCCNC(=O)[C@H](Cc1c[nH]c2ccccc12)NC(=O)[C@H](CC(N)=O)NC(=O)[C@H](Cc1ccc(OCc2ccccc2)cc1)NC(=O)OC(C)(C)C` [SP323C2, N-Boc-Tyr(Bn)-Asn-Trp-NH(CH2)4NHBoc]: the “CT-L Activation factor” value in series [2] is 1.6. For the same compound, the “PA Activation factor” value in series [3] turned out to be 1.2. In series [4], the “T-L Activation factor” value is 2.2.
For the compound `CC(C)C[C@H](NC(=O)[C@H](Cc1ccccc1)NC(=O)c1cnccn1)B(O)O` [Bortezomib, bortezomib], the “patients with adverse events” value in series [5] is listed as 30%.
